Laboratory results reported in US20220226473A1, “Nucleic acid nanocarrier drug and preparation method thereof, pharmaceutical composition and application thereof” (BAI YAO ZHI DA (BEIJING) NANOBIO TECHNOLOGY CO., LTD., priority 2018, published 2022).
Like-named read-outs stand apart in the source and are kept apart here.

Key:
SGC7901 cells = assay: Cytotoxicity of RNAh-Biotin-quasar670-hdcp nanoparticles; assay type: cell-based
HL60 cells = assay: Cytotoxicity of RNAh-Bio-670-EPB nanoparticles, CellTiter-Glo; assay type: cell-based
Protocol: Preparing a freshly prepared reagent into a corresponding volume container, and adding PBS to be quantified to 10 μM.
Cells are cultured at 37 DEG C. and 5% CO2 in a corresponding basal medium in which 10% FBS and 1% PS are respectively added. The cell density used in the experiment is above 80%. The cells are collected, and centrifuged at 1000 rpm for 4 minutes, the medium is resuspended, the cell concentration is adjusted, and it is added to the 96-well plate in a volume of 3000 cells per 50 μL, and each group has 3 replicate wells.
After 24 hours, the compound solution is transferred to each well by 50 μL/well.
The above cells after administration are cultured for 72 hours under a condition of 37 DEG C and 5% CO2.
The well plate is brought to a room temperature in advance and stands for 30 minutes, 100 μL of a CellTiter-Glo® reagent is added to each well of the well plate and mixed for 2 minutes on a shaker to promote cell lysis. The Perkin Elmer Envision 2104 Multilabel Reader is used to read values and the values are recorded.
The acquired experiment data is analyzed and processed by using excel software, and GraphPad Prism 5 software is used for curve fitting analysis.

MOLT4 cells = assay: Cytotoxicity of RNAh-Bio-670-MTX nanoparticles, CTG; assay type: cell-based, human
Protocol: 1) Using the RPMI1640+10% FBS+1% PS medium to culture the MOLT4 cells at 37 DEG C. and 5% CO2.
2) Collecting the cells, centrifuging at 800 rpm for 5 minutes, resuspending the medium, adjusting the cell concentration, and adding to the 96-we plate in a volume of 5000 cells per 90 μL. […]
4) After being cultured for 72 hours, adding 100 μL of the CTG reagent to each well, shaking for 2 minutes, and standing at the room temperature for 10 minutes, herein a whole process is protected from light.
5) Finally using Soft Max Pro5 software to read.

SH-SY5Y cells [1] = assay: Cytotoxicity of RNAh-Biotin-quasar670-aspirin nanoparticles, CTG kit; assay type: cell-based
Protocol: Experiment purpose: an effect of a compound on proliferation of a target tumor cell line is researched.
Experiment design: the compound is diluted in 8 concentration gradients and sequentially added to the target tumor cell line and incubated for 72 hours, the CTG kit is used to detect the effect of the compound on the cell proliferation.

SH-SY5Y cells [2] = assay: Cytotoxicity in SH-SY5Y cells, CellTiter-Glo (Embodiment 8); assay type: cell-based
Protocol: (1) Using the RPMI1640+10% FBS+1% PS medium to culture the SH-SY5Y cells at 37 DEG C and 5% CO2.
(2) Collecting the cells, centrifuging at 800 rpm for 5 minutes, resuspending the medium, adjusting the cell concentration, and adding to the 96-well plate in a volume of 5000 cells per 90 μL.
(3) Diluting a sample to be tested with the culture medium on the next day, respectively adding 200 nM to each sample, herein each sample has 4 replicate wells for replication.
(4) After being cultured for 72 hours, adding 100 μL of the CTG reagent to each well, shaking for 2 minutes, and standing at the room temperature for 10 minutes, herein a whole process is protected from light.
(5) Finally using Soft Max Pro5 software to read.

MCF-7 cells [3] = assay: Cytotoxicity of RNAh-Bio-670-THP and RNAh-Bio-670-DNR nanoparticles, CTG; assay type: cell-based, human; details: MCF-7, 72 h, 200 nM
Protocol: 3) Diluting a sample to be tested with the culture medium on the next day, respectively adding 200 nM to each sample, herein each sample has 4 replicate wells for replication.
Samples to be tested: small molecular drug THP and RNAh-Bio-670-THP nanoparticles;
1) Except that it is the MCF-7 cells, the rest are the same as (III).

MCF-7 cells [4] = assay: Cytotoxicity of DNAh-Bio-EGFRapt-Cy5-EPB nanoparticles, CellTiter 96 AQueous One Solution; assay type: cell-based, human
Excerpt: GraphPad Prism5.0 software is used to process data graphically. […] A calculation formula of the cell survival rate is as follows, the IC50 may be automatically calculated in the GraphPad Prism 5.0. […]

NCI-H1975 cells = assay: as above; assay type: cell-based
Protocol: GraphPad Prism5.0 software is used to process data graphically. In order to calculate the IC50, “W”-shaped non-linear regression analysis is performed on the data to match a suitable dosage-effect curve. A calculation formula of the cell survival rate is as follows, the IC50 may be automatically calculated in the GraphPad Prism 5.0.

SGC-7901 cells = assay: Cytotoxicity of DNAh-Biotin-EGFRapt-Cy5-THP nanoparticles; assay type: cell-based, human
Protocol: (§1) 2) adjusting the cell density to 2.22×10^4/mL with a growth medium:
(§2) 3) planting 90 μL/well of cell suspension into the 96-well plate, herein the number of cells per well in the plate is 2000;
(§3) 4) placing the planted cell plate in the incubator at 37 DEG C. and incubating overnight;
(§4) 5) performing 3.16-fold gradient dilution on the compound at 9 concentration points;
(§5) 6) taking out the cell culture plate, and adding 10 μL/well of 10× concentration drug working solution to the corresponding wells of the cell culture plate, herein three replicate holes are made for each concentration, and the final drug action concentration is shown in the table below.
(§6) 7) placing the cell culture plate in the incubator and continuously incubating for 96 hours;
(§7) 8) placing the CellTiter 96@D AQueous One Solution reagent at the room temperature and thawing for 90 minutes or thawing in a water bath at 37 DEG C., and then equilibrating at the room temperature for 30 minutes;
(§8) 9) adding 20 μL/well of the CellTiter 96® AQueous One Solution reagent to the cell culture plate;
(§9) 10) placing the cell culture plate in the incubator at 37 DEG C. and continuously incubating for 3 hours;
(§10) 11) using the microplate reader to read a OD490 value of each well in the cell plate; and
(§11) 12) data processing and analysis.
(§12) GraphPad Prism5.0 software is used to process data graphically. In order to calculate the IC50, […] non-linear regression analysis is performed on the data to match a suitable dosage-effect curve. A calculation formula of the cell survival rate is as follows, the IC50 may be automatically calculated in the GraphPad Prism 5.0.
(§13) Cell survival rate (%)=(ODtest well−ODblank control)/(ODnegative control−ODblank control)×100%.
(§14) II. Experiment Device and Method Same as (II)

SKOV3 cells = assay: as above; assay type: cell-based, human
Protocol: as §1, §2, §3, §4, §5, §6, §7, §8, §9, §10, §11, §12, §13, §14

BXPC3 cells = assay: Cytotoxicity of RNAh-Bio-670-gemcitabine nanoparticles; assay type: cell-based; details: Homo sapiens, BXPC-3
Excerpt: I. Samples to be tested: small molecular drug gemcitabine and […] nanoparticles

HepG2 cells = assay: Cytotoxicity of RNAh-Biotin-quasar670-flu nanoparticles; assay type: cell-based
Protocol: I. Samples to be tested: small molecular […] chemical drug and RNAh-Biotin-quasar670-flu nanoparticles.
In order to further determine that the RNA nanoparticles without carrying the […] have no apparent cytotoxicity to the HepG2 cells, the inventor further designs a toxicity experiment of the RNAh-Biotin-FAM (FAM is a fluorescent marker), a targeted fluorescent carrier, to the HepG2 cells (a drug administration gradient in the experiment is as follows: 100 μM, 31.6 μM, 10 μM, 3.16 μM, 1 μM, 316 nM, 100 nM, 31.6 nM, 10 nM, and 0 (10% PBS)), the results thereof are shown in Table 134 and FIG. 95.

[5] = administration concentration 5 μM
[6] = highest administration concentration 10 μM

With `CC[C@@]1(O)C(=O)OCc2c1cc1n(c2=O)Cc2cc3cc(O)ccc3nc2-1` [10-hydroxycamptothecin] the “Cell inhibition rate (%) when administration concentration is 5 μM” value (SGC7901 cells; SGC7901, 72 h, 5 μM) was 75.43% and the “cell inhibition rate (%), SGC7901 cells” value (SGC7901 cells; [5]) was 75.43%.

For `N.N.[Cl][Pt][Cl]` [Cisplatin], the “inhibition rate to the HL60 cells” value (HL60 cells; [6]) was 99.96%, the “inhibition rate to the MOLT4 cell proliferation” value (MOLT4 cells; maximum administration concentration 5 μm) was 99.94% and the “inhibition rate to the SH-SY5Y cells” value (SH-SY5Y cells [1]; [6]) was 99.81%. For the same compound, the IC50 (SH-SY5Y cells [2]; highest administration concentration 5 μM) was 0.51 µM.

In the case of `COc1cccc2c1C(=O)c1c(O)c3c(c(O)c1C2=O)C[C@@](O)(C(C)=O)C[C@@H]3O[C@H]1C[C@H](N)[C@H](O)[C@H](C)O1` [Daunorubicin (DNR)], the “cell survival rate (%)” value (MCF-7 cells [3]) is reported as 17.33%.

With `COc1cccc2c1C(=O)c1c(O)c3c(c(O)c1C2=O)C[C@@](O)(C(=O)CO)C[C@@H]3O[C@H]1C[C@H](N)[C@@H](O)[C@H](C)O1` [EPB, epirubicin] the “toxicity to MCF-7 cells” value (MCF-7 cells [4]; 96 hours) was “toxic to the MCF-7 cells”, the IC50 (MCF-7 cells [4]; Homo sapiens, MCF7, MCF-7, 96 hours) was 0.0847 µM and the IC50 (HL60 cells; Homo sapiens, HL-60, 72 hours, read-out: IC50, HL60 cell proliferation) was 0.0698 µM. For the same compound, the inhibition at 5 µM (HL60 cells; Homo sapiens, HL-60, concentration 5 μM, 72 hours, read-out: inhibition rate on HL60 cells) was 99.2%, the “toxicity to NCI-H1975 cells” value (NCI-H1975 cells; 96 hours) was “toxic to the NCI-H1975 cells” and the IC50 (NCI-H1975 cells; Homo sapiens, NCI-H1975, 96 hours) was 0.0306 µM.

With `COc1cccc2c1C(=O)c1c(O)c3c(c(O)c1C2=O)C[C@@](O)(C(=O)CO)C[C@@H]3O[C@H]1C[C@H](N)[C@@H](O)[C@H](C)O1` [Epirubicin (EPB)] the IC50 (HL60 cells; HL60, treatment time 72 h, CellTiter-Glo, read-out: IC50) was 0.301 µM.

For `CN(Cc1cnc2nc(N)nc(N)c2n1)c1ccc(C(=O)N[C@@H](CCC(=O)O)C(=O)O)cc1` [MTX, methotrexate], the “effect on proliferation of MOLT4 cells” value (MOLT4 cells; 200 nM, 72 hours) was “significant inhibitory effect on the proliferation of the MOLT4 cells”.

With `CN(Cc1cnc2nc(N)nc(N)c2n1)c1ccc(C(=O)N[C@@H](CCC(=O)O)C(=O)O)cc1` [Methotrexate (MTX)] the “cell survival rate (%)” value (MOLT4 cells; MOLT-4, 72 h, 200 nM) was 2.88%.

For `COc1cccc2c1C(=O)c1c(O)c3c(c(O)c1C2=O)C[C@@](O)(C(=O)CO)C[C@@H]3O[C@H]1C[C@H](N)[C@H](O[C@@H]2CCCCO2)[C@H](C)O1` [Pirarubicin (THP)], the “cell survival rate (%)” value (MCF-7 cells [3]) was 13.85%.

For `COc1cccc2c1C(=O)c1c(O)c3c(c(O)c1C2=O)C[C@@](O)(C(=O)CO)C[C@@H]3O[C@H]1C[C@H](N)[C@H](O[C@@H]2CCCCO2)[C@H](C)O1` [THP, pirarubicin], the “toxicity to SGC-7901 cells” value (SGC-7901 cells) was “toxic to the SGC-7901 cells”, the IC50 (SGC-7901 cells; Homo sapiens, SGC-7901) was 0.0274 µM and the “toxicity to SKOV3 cells” value (SKOV3 cells) was “toxic to the SKOV3 cells”. The IC50 (SKOV3 cells; Homo sapiens, SK-OV-3, SKOV3) was 0.0237 µM.

`Nc1c2c(nc3ccccc13)CCCC2` [Tacrine, tacrine] was tested, and the “cell proliferation rate (%)” value (SH-SY5Y cells [2]; 200 nM, 72 h) was 39.75%.

Work on `CC(=O)Oc1ccccc1C(=O)O` [aspirin] yielded an IC50 (SH-SY5Y cells [1]; Homo sapiens, SH-SY5Y, 72 hours, read-out: IC50, SH-SY5Y cell proliferation) of 1430 µM, an inhibition at 5 µM (SH-SY5Y cells [1]; Homo sapiens, SH-SY5Y, administration concentration 5 μM, 72 hours, read-out: cell inhibition rate, SH-SY5Y cells) of 17.7% and an IC50 (SH-SY5Y cells [1]; Homo sapiens, SH-SY5Y, 72 h, CTG kit, read-out: IC50) of 1430 µM.

For `Nc1ccn([C@@H]2O[C@H](CO)[C@@H](O)C2(F)F)c(=O)n1` [gemcitabine], the IC50 (BXPC3 cells; BXPC3, 72 h, read-out: IC50) was 0.0342 µM, the inhibition at 5 µM (BXPC3 cells; administration concentration 5 μM, read-out: cell inhibition rate, BxPC3 cells) was 83% and the IC50 (BXPC3 cells; read-out: IC50, BxPC3 cell proliferation) was 0.0341 µM.

In the case of `O=c1[nH]cc(F)c(=O)[nH]1` [pentafluorouracil], the “Cell inhibition rate (%) when administration concentration is 5 μM” value (HepG2 cells; HepG2, 72 h, 5 μM) is reported as 39.02% and the “cell inhibition rate (%), HepG2 cells” value (HepG2 cells; [5]) is reported as 39.02%.
